This note sets out measurements from patent US8673929B2, “4,6-di- and 2,4,6-trisubstituted quinazoline derivatives and pharmaceutical compositions useful for treating viral infections” (priority 2006, dated 2014).

One data set has as its system HCV replicon. Put plainly: Anti-HCV replicon assay, EC50 (luciferase readout). The class given is cell-based. As to conditions: Hepatitis C virus, 72 h; Huh-7 HCV replicon cells, 3 days incubation, luciferase luminescence. As for the experimental part:
(§1) The anti HCV activity of the quinazoline derivatives of this invention was tested in a human hepatoma Huh-7 cell line harbouring a HCV replicon. The assay comprised the following steps:
(§2) Step 1: compound preparation and serial dilution • 1. for water soluble quinazoline derivatives, a volume of 500 μL of solution in cell media (DMEM, 10% FBS, P/S, L-Glutamine) was prepared with a concentration being twice the concentration of the starting final serial dilution concentration. A volume of 150 μL of the solution was added to the pre-specified wells in column 1 of a 96-well cell culture plate (PerkinElmer, white plate, cat. #6005181, for EC50 assay; black plate, cat. #6005182 for CC50 assay). The rest of the plate, columns 2-12, was filled with 100 μL of cell media. The plate was then placed on a Precision 2000 Workstation to start the serial dilution. Compounds were diluted three times each step from column 1 to column 10. Column 11 was used as a blank control (no compound added). • 2. for quinazoline derivatives requiring DMSO to dissolve, serial dilution is performed in 50% DMSO in a 384-well plate. A solution containing a compound at 100-fold concentration of the starting final serial dilution concentration was prepared in 50% DMSO and added to the pre-specified wells in column 1 of a polypropylene 384-well plate. The plate was then placed on a Precision 2000 Workstation to start the serial dilution. After the serial dilution, a volume of 2 μL of the solution was transferred from the 384-well plate to a 96-well cell culture plate containing 100 μL of cell media on a Biomek FX Workstation. The DMSO concentration in the final assay condition was 0.5% after cells are added to the plate and the total volume in each well is brought to 200 μL.
(§3) Step 2: to each well of the serial dilution plate prepared above, 100 μL of cell media containing 6000 suspended Huh-7 HCV replicon cells was added with a Multidrop workstation. The plates were incubated for 3 days at 37° C. with 5% CO2.
(§4) Step 3: detection: • a) for the EC50 assay, the media in a 96-well cell culture plate was aspirated with a Biotek EL405 plate-washer. A volume of 200 μL of a solution containing a 1:1 mixture of cell-lysis buffer (Promega, Luciferase Cell Culture Lysis 5× Reagent, cat. #E1531) and luciferase substrate solution (Promega, Luciferase Assay, cat.# E4550) was added to each well of the plate with Multidrop. The plate was incubated for 30 minutes at room temperature before the luminescence signal was measured with a TopCount plate-reader. • b) for the CC50 assay, a volume of 100 μL of pre-mixed CellTiter-Glo (Promega, cat.# G7572) solution is added directly to the cell culture in each well of the plate and the luminescence signal is measured with a TopCount plate-reader after 10 minutes of incubation at room temperature.
(§5) Results in the table below are expressed by the following data: • the 50% cytostatic concentration (CC50), i.e. the concentration that results in 50% inhibition of cell growth, and • the 50% effective concentration (EC50), i.e. the concentration that […].
(In general: A replicon is a self-replicating genome or part of one, used to study replication in cells.)

The nature of data set [1]: CC50 assay in the anti-HCV replicon assay (CellTiter-Glo). The class given is cell-based, human. As to conditions: human, Huh-7 hepatoma cells harbouring an HCV replicon; Huh-7 HCV replicon cells, 3 days incubation, CellTiter-Glo luminescence. As for the experimental part:
as §1, §2, §3, §4, §5

The EC50 is the midpoint of the concentration-response curve. Usually CC50 stands for the concentration giving 50% cytotoxicity. Lower therefore signals greater toxicity to the cells.

As for `CCOc1nc(N)nc2ccc(-c3ccc(C(=O)Nc4ccccn4)cc3)cc12` [Example 160, 4-(2-Amino-4-ethoxy-quinazolin-6-yl)-N-pyridin-2-yl-benzamide], the EC50 in the data set with HCV replicon lay within 1000 to 10000 nM. Besides, the CC50 at 3 days in data set [1] is > 20 µM.
For `CC(=O)Nc1ccc(-c2ccc3nc(N)nc(OCCN4CCOCC4)c3c2)cc1` [Example 29, 2-amino-6-(4-acetamidophenyl)-4-[2-(4-morpholinyl)ethoxy]-quinazoline] the same measures were 300 to 1000 nM and > 20 µM.
For `Nc1nc(OCCF)c2cc(-c3ccc(C(=O)N4CCSCC4)cc3)ccc2n1` [Example 205, {4-[2-Amino-4-(2-fluoro-ethoxy)-quinazolin-6-yl]-phenyl}-thiomorpholin-4-yl-methanone] the same measures were 1000 to 10000 nM and > 20 µM.
For `CC(=O)Nc1ccc(-c2ccc3nc(N)nc(OC(C)C)c3c2)cc1` [Example 27, 2-amino-6-(4-acetamidophenyl)-4-isopropoxy-quinazoline], in that order: 300 to 1000 nM and > 20 µM.
`Nc1nc(OCC2CCC2)c2cc(-c3ccoc3)ccc2n1` [Example 111, 4-Cyclobutylmethoxy-6-furan-3-yl-quinazolin-2-ylamine] returned an EC50 with HCV replicon of 300 to 1000 nM. In data set [1], this compound showed a cytotoxic concentration (CC50) at 3 days of 10 to 20 µM.
For `CC(C)Oc1nc(N)nc2ccc(-c3ccc(F)cc3F)cc12` [Example 74, 6-(2,4-Difluoro-phenyl)-4-isopropoxy-quinazolin-2-ylamine] the same measures were 1000 to 10000 nM and 10 to 20 µM.
As to `CC(C)Oc1nc(N)nc2ccc(-c3ccc(C(=O)N4CCSCC4)cc3)cc12` [Example 180, [4-(2-Amino-4-isopropoxy-quinazolin-6-yl)-phenyl]-thiomorpholin-4-yl-methanone], the concentration giving a half-maximal response (EC50) with HCV replicon lay within 1000 to 10000 nM. For the same compound, in data set [1], the CC50 at 3 days fell in the range of 10 to 20 µM.
For `CCCCNC(=O)c1ccc(-c2ccc3nc(N)nc(OCCF)c3c2)cc1` [Example 199, 4-[2-Amino-4-(2-fluoro-ethoxy)-quinazolin-6-yl]-N-butyl-benzamide], in that order: 1000 to 10000 nM and > 20 µM.
In the case of `Nc1nc(OCCO)c2cc(-c3cccc(O)c3)ccc2n1` [Example 194, 3-[2-Amino-4-(2-hydroxy-ethoxy)-quinazolin-6-yl]-phenol], in the data set on HCV replicon, the 50% effective concentration (EC50) lay in the range of 1000 to 10000 nM. The same compound displayed a CC50 at 3 days in data set [1] of 10 to 20 µM.
Compound `CC(C)Oc1nc(N)nc2ccc(-c3ccn[nH]3)cc12` [Example 85, 4-Isopropoxy-6-(2H-pyrazol-3-yl)-quinazolin-2-ylamine] came in with an EC50 in the data set on HCV replicon of 300 to 1000 nM. The CC50 at 3 days in data set [1] was > 20 µM.
Consider `Nc1nc(OC[C@@H]2CCCO2)c2cc(-c3ccc(C(=O)NC4CC4)cc3)ccc2n1` [Example 213], for which the EC50 in the data set on HCV replicon was < 300 nM. In addition, the CC50 at 3 days in data set [1] is > 20 µM.
For `CCOc1nc(N)nc2ccc(-c3ccsc3)cc12` [Example 45, 4-Ethoxy-6-thiophen-3-yl-quinazolin-2-ylamine], in that order: 1000 to 10000 nM and > 20 µM.
Regarding `CC(C)Oc1nc(N)nc2ccc(-c3ccc(C(=O)NC4CCCC4)cc3)cc12` [Example 175, 4-(2-Amino-4-isopropoxy-quinazolin-6-yl)-N-cyclopentyl-benzamide], in the data set on HCV replicon, the EC50 is < 300 nM. Besides, the CC50 at 3 days in data set [1] is < 10 µM.
For `CCOc1nc(N)nc2ccc(-c3ccc(C(=O)NC4=NCCS4)cc3)cc12` [Example 163, 4-(2-Amino-4-ethoxy-quinazolin-6-yl)-N-(4,5-dihydro-thiazol-2-yl)-benzamide], in that order: 1000 to 10000 nM and > 20 µM.
For `CC(C)Oc1nc(N)nc2ccc(-c3ccccc3C(F)(F)F)cc12` [Example 77, 4-Isopropoxy-6-(2-trifluoromethyl-phenyl)-quinazolin-2-ylamine] the same measures were 1000 to 10000 nM and 10 to 20 µM.
`Nc1nc(OCCF)c2cc(-c3ccc(C(=O)NC4=NCCS4)cc3)ccc2n1` [Example 206, 4-[2-Amino-4-(2-fluoro-ethoxy)-quinazolin-6-yl]-N-(4,5-dihydro-thiazol-2-yl)-benzamide] gave an EC50 in the data set with HCV replicon of 1000 to 10000 nM. Moreover, the CC50 at 3 days in data set [1] was > 20 µM.
The compound `CC(C)Oc1nc(N)nc2ccc(-c3cccc(C(F)(F)F)c3)cc12` [Example 76, 4-Isopropoxy-6-(3-trifluoromethyl-phenyl)-quinazolin-2-ylamine] registered a concentration for a half-maximal effect (EC50) with HCV replicon of 1000 to 10000 nM. For the same compound, the half-maximal cytotoxic concentration (CC50) at 3 days in data set [1] is > 20 µM.
For `CCOc1nc(NCc2ccc(S(N)(=O)=O)cc2)nc2ccc(-c3ccc(NC(N)=O)cc3)cc12` [Example 254, 4-{[4-ethoxy-6-(4-ureido-phenyl)-quinazolin-2-ylamino]-methyl}-benzenesulfonamide], in that order: < 300 nM and < 10 µM.
For `Cc1ccc(-c2ccc3nc(N)nc(OCC4CCC4)c3c2)cc1` [Example 107, 4-Cyclobutylmethoxy-6-p-tolyl-quinazolin-2-ylamine] the same measures were 1000 to 10000 nM and > 20 µM.
For `COCCOc1nc(N)nc2ccc(-c3cn[nH]c3)cc12` [Example 64, 4-(2-Methoxy-ethoxy)-6-(2H-pyrazol-4-yl)-quinazolin-2-ylamine], in that order: 1000 to 10000 nM and > 20 µM.
With `CC(C)Oc1nc(N)nc2ccc(-c3ccc(C(=O)NC4=NCCS4)cc3)cc12` [Example 181, 4-(2-Amino-4-isopropoxy-quinazolin-6-yl)-N-(4,5-dihydro-thiazol-2-yl)-benzamide], the concentration giving a half-maximal response (EC50) with HCV replicon was in the range of 300 to 1000 nM. Further, in data set [1], the cytotoxic concentration (CC50) at 3 days lay within 10 to 20 µM.
For `CCOc1nc(N)nc2ccc(-c3ccc(F)c(F)c3F)cc12` [Example 50, 4-Ethoxy-6-(2,3,4-trifluoro-phenyl)-quinazolin-2-ylamine], in that order: 1000 to 10000 nM and 10 to 20 µM.
For `Nc1nc(OCCN2CCOCC2)c2cc(-c3cccc(F)c3F)ccc2n1` [Example 243, 6-(2,3-Difluoro-phenyl)-4-(2-morpholin-4-yl-ethoxy)-quinazolin-2-ylamine], in that order: 1000 to 10000 nM and > 20 µM.
For `CCOc1nc(N)nc2ccc(-c3cccc(F)c3F)cc12` [Example 38] the same measures were 1000 to 10000 nM and 10 to 20 µM.
As for `COCCOc1nc(N)nc2ccc(-c3cc4ccccc4s3)cc12` [Example 56, 6-Benzo[b]thiophen-2-yl-4-(2-methoxy-ethoxy)-quinazolin-2-ylamine], the EC50 with HCV replicon is 1000 to 10000 nM. Also, the CC50 at 3 days in data set [1] was > 20 µM.
For `CCOc1nc(N)nc2ccc(-c3cn[nH]c3)cc12` [Example 48, 4-Ethoxy-6-(2H-pyrazol-4-yl)-quinazolin-2-ylamine] the same measures were 300 to 1000 nM and > 20 µM.
On to `COc1ccc(-c2ccc3nc(N)nc(OC(C)C)c3c2)cc1OC` [Example 18, 2-amino-6-(3,4-dimethoxyphenyl)-4-isopropoxy-quinazoline], for which, in the data set on HCV replicon, the concentration giving a half-maximal response (EC50) is < 300 nM. In addition, the CC50 at 3 days in data set [1] is < 10 µM.
For the compound `CCOc1nc(N)nc2ccc(-c3ccc(-c4nnc(C)o4)cc3)cc12` [Example 187, 4-Ethoxy-6-[4-(5-methyl-[1,3,4]oxadiazol-2-yl)-phenyl]-quinazolin-2-ylamine], the EC50 in the data set on HCV replicon lay in the range of 1000 to 10000 nM. Besides, the cytotoxic concentration (CC50) at 3 days in data set [1] is > 20 µM.
`Nc1nc(OCC2CCC2)c2cc(-c3ccsc3)ccc2n1` [Example 117, 4-Cyclobutylmethoxy-6-thiophen-3-yl-quinazolin-2-ylamine]: the EC50 with HCV replicon was in the range of 1000 to 10000 nM. The same compound displayed a CC50 at 3 days in data set [1] of 10 to 20 µM.
For `Nc1nc(OCCN2CCOCC2)c2cc(-c3cccs3)ccc2n1` [Example 237, 4-(2-Morpholin-4-yl-ethoxy)-6-thiophen-2-yl-quinazolin-2-ylamine] the same measures were 1000 to 10000 nM and > 20 µM.
For `CCOc1nc(N)nc2ccc(-c3ccc(C(N)=O)cc3)cc12` [Example 214, 4-(2-Amino-4-ethoxy-quinazolin-6-yl)-benzamide], in that order: < 300 nM and > 20 µM.
